Laboratory results taken from patent US20240033257A1, “USE OF PPAR-DELTA INHIBITOR IN COMBINATION WITH IMMUNOTHERAPEUTIC DRUG FOR PREPARING ANTI-TUMOR DRUG” (THE FIRST HOSPITAL OF JILIN UNIVERSITY, priority 2021, published 2024).

Experiments:
[1] = tested on: human CD19+CD24hiIgDlo/− B cells; assay: Suppression of T cell IFNγ secretion by human CD19+CD24hiIgDlo/− B cells cultured with GSK3787; format: cell-based; settings: cultured 24 hours with GSK3787
Procedure: B cells were isolated and gathered from the peripheral blood of multiple normal blood donors or patients, and CD19^+CD24^hiIgD^lo/− B cells were isolated from the gathered B cells and cultured for 24 hours in complete RPMI 1640 culture medium with or without the PPARδ inhibitor GSK3787. Then these B cells were washed twice to remove the PPARδ inhibitor, resuspended in complete RPMI 1640 culture medium at 1×10^6/ml. CD4^+CD25^− T cells were isolated from blood of normal blood donors. The treated CD19^+CD24^hiIgD^lo/− B cells and these T cells (1:1) were co-cultured for 48 hours, Dynabeads were coated with anti-human CD3 mAb and anti-human CD28 mAb and placed on a 96-well U-shaped culture plate. Golgi^plug (BD Biosciences), PMA and ionomycin were added into the culture medium together for 6 hours. CD4^+ T cells were surface stained, perforated in the cytomembrane, and stained intracellularly using fluorescence labelled anti-human IFNγ, then analyzed using flow cytometry.

B16 tumor = assay: CD19+ B cell eradication experiment in B16 tumor-bearing mice, tumor growth; format: in vivo, mouse; settings: 250 μg anti-CD19 antibody (clone 1d3) intraperitoneal at day 6, 7 and 15; low-dose FGK45.5; FIG. 5b
Procedure: To some of the B16 tumor-bearing mice, the anti-CD19 antibody was used first to kill B cells, and then Rat IgG or FGK45.5 or FGK45.5 combined with the PPARδ inhibitor (GSK3787) was administered for treatment. Growth of the tumors was observed. Treatment with Rat IgG, FGK45.5, and FGK45.5 in combination with the PPARδ inhibitor were taken as control groups.
CD19^+ B cell Eradication Experiment: At the 6th day, 7th day, and 15th day after inoculation of B16 cells, 250 μg anti-CD19 antibody (clone 1d3) was administered to tumor-bearing mice through intraperitoneal injection, and the eradication rate of B cells as measured using FACS should be 90% or more.

[2] = tested on: CD19+CD24hiIgDlo/− B cells; assay: Co-culture of sorted B cell subpopulations from treated mice with CFSE-labelled CD4+ T cells; format: cell-based, mouse; settings: B cells:T cells 1:1, 72 hours; FIG. 8a
Procedure: For evaluating the function-regulating effects on CD19^+CD24^hiIgD^lo/− B cells, the experimental scheme of Example 4 was employed. 24 hours after the last GSK3787 injection (i.e., 72 hours after the last FGK45.5 injection), mice of all groups were sacrificed. CD19^+CD24^hiIgD^lo/− B cell population and CD19^+CD24^loIgD^hiB cell population were isolated form draining lymph nodes of differently treated tumor-bearing mice using flow cytometry. Purified CD4^+ T cells from normal mice were labelled with 2.5 μM CFSE in vitro. The CFSE-labelled cells were resuspended in complete RPMI 1640 culture medium at 1×10^6/ml, and transferred into a 96-well plate coated with 10 μg/ml anti-CD3E antibody at 4° C. overnight. The B cells purified from draining lymph nodes and the foregoing T cells (1:1) were co-cultured for 72 hours in the foregoing 96-well plate containing 1 μg/ml anti-CD28 mAb for use in flow cytometry assays. The proliferation of the CFSE-labelled T cells was calculated using the equation: (1-MFI value of CFSE of T Cells in Experimental Group/MFI value of CFSE of B-cell-free T Cells in Control Group)[…].

[3] = tested on: MB49 cells (mouse bladder cancer cells); assay: MB49 bladder cancer tumor-bearing mouse model, tumor growth; format: in vivo; settings: doses and regimens of FIG. 2a; FIG. 9
Source text: From the results above, we anticipate that the PPARδ inhibitor could also enhance therapeutic effects of immunotherapeutic drug on tumors in other tumor models. In order to verify such possibility, we examined the therapeutic effects of the PPARδ inhibitor in combination with FGK45.5 on MB49 bladder cancer cell tumor-bearing mice. C57BL/6 mice (8 to 10 weeks, n=5/group, 4 groups) are subcutaneously inoculated with 7×10^5 MB49 cells (mouse bladder cancer cells) and about 8 days after inoculation of tumor cells when tumors became touchable, Rat IgG, or FGK45.5, or PPARδ inhibitor (GSK3787), or FGK45.5 in combination with PPARδ inhibitor (GSK3787) was administered. Tumor growth condition was monitored.

[4] = tested on: B16 tumor cells (mouse melanoma cells); assay: B16 melanoma tumor-bearing mouse model, tumor growth; format: in vivo; settings: low-dose FGK45.5 (75 μg in total); inhibitors intraperitoneal once a day Day 7 to Day 16; FIG. 2a
Procedure: We used a mouse B16 melanoma model extensively used in researches and having relatively high immunogenicity (C57BL/6 B16 Tumor-Bearing Mouse Model): C57BL/6 mice (8-10-week-old, n=5/group) were subcutaneously inoculated with 7×10^5 B16 tumor cells (mouse melanoma cells), and about 8 days after inoculation of tumor cells when tumors became touchable, anti-CD40 agonistic antibody was administered.
The mice were monitored every day, and tumors were measured with calipers every four days. The tumors were measured for length (a) and width (b), and tumor volume=ab^2/2.
Dosage regimen: These tumor-bearing mice were treated using low-dose 25 μg of FGK45.5 (mouse anti-CD40 agonistic antibody) for three times, 75 μg in total (at Day 8, Day 11, and Day 14) or high-dose 40 μg for 5 times, 200 μg in total (at Day 8, Day 11, Day 14, Day 17, and Day 20) or 40 μg with Isotype Control Rat IgG for 5 times (at Day 8, Day 11, Day 14, Day 17, and Day 20). Subcutaneous injection was made between the tumor and the draining lymph node at the groin. 72 hours after the last injection of each group, samples of mouse blood serum were tested for alanine transaminase (ALT, a known indicator of liver tissue injury).
The establishment of the B16 melanoma tumor-bearing mouse model and the dosage regimens of low-dose and high-dose FGK45.5 followed Example 1. […]

[5] = tested on: CD19+CD24hiIgDlo/− B cells; assay: Surface marker, PPARδ and Ki67 flow cytometry of B cell subpopulations in draining lymph nodes; format: in vivo, mouse
Procedure: For verifying this assumption, the experimental scheme of Example 4 was used. The mice of all groups were sacrificed at the 24th hour after the last injection of GSK3787 (i.e., the 72nd hour after the last FGK45.5 injection), and various surface marker analyses were conducted on the B cells isolated from lymph nodes of tumor-bearing mice to identify surface markers of B cell subpopulations having immunosuppressive effects and the effects of different treatments on B cell subpopulations having immunosuppressive effects.
At the 24th hour after the last GSK3787 injection, tumor draining lymph nodes of differently treated mice were sampled. The lymph nodes at the same body portion in natural, tumor-free mice were also sampled as the control group. The lymph nodes were ground into single-cell suspension. Cells from different lymph nodes were stained using various fluorescence labeling antibodies for flow cytometry assays.

[6] = tested on: B cells from draining lymph nodes; assay: Inhibition of CFSE-labelled CD4+ T cell proliferation by B cells from draining lymph nodes of treated tumor-bearing mice; format: cell-based, mouse; settings: B cells:T cells 1:1, co-cultured 72 hours; FIG. 5a
Procedure: The next point was to verify whether the PPARδ inhibitor enhances immunotherapy through affecting B cells. First, the ability of B cells in draining lymph nodes of tumor-bearing mice treated differently to inhibit proliferation of activated T cells was examined in vitro. Purified C D4^+ T cells from normal mice were labelled using 2.5 μM CFSE in vitro. The CFSE-labelled cells were then resuspended in complete RPMI 1640 culture medium at 1×10^6/ml, and transferred into a 96-well plate that had been coated with 10 μg/ml anti-CD3ε antibody at 4° C. overnight. B cells purified from draining lymph nodes and the foregoing T cells (1:1) were co-cultured for 72 hours in the foregoing 96-well plate containing 1 μg/ml anti-CD28 mAb, and a flow cytometry assay was conducted. The cell proliferation rate of the CFSE-labelled T cells was calculated using the equation: (1-MFI value of CFSE of T Cells in Experimental Group/MFI value of CFSE of B-cell-free T Cells in Control Group)×100%. MFI refers to the mean fluorescence intensity.

[7] = tested on: lymphocytes in draining lymph nodes; assay: Lymphocyte subpopulations in draining lymph nodes of B16 tumor-bearing mice (flow cytometry, cell counting); format: in vivo, mouse
Procedure: The C57BL/6 B16 tumor-bearing mouse model (mice subcutaneously inoculated with 7×10^5 B16 cells, 8 days after inoculation of tumor cells, mice with tumors touchable) of Example 1 was used. The experiment included the treatment group of low-dose FGK45.5, the treatment group of low-dose FGK45.5 in combination with the PPARδ inhibitor, the treatment group of using the PPARδ inhibitor solely, and the isotype control Rat IgG treatment group. 24 hours after the last injection of GSK3787 (i.e., 72 hours after the last FGK45.5 injection), the mice of all group were sacrificed. Cells at lymph nodes of mice from all groups were sampled for flow cytometry assays and cell counting.

Structure (SMILES) | suppressive activity of human CD19+CD24hiIgDlo/− B cells (IFNγ secretion of activated T cells) ([1]; B cells of cancer patients (NSCLC)) | suppressive activity of human CD19+CD24hiIgDlo/− B cells (IFNγ secretion of activated T cells) ([1]; B cells of healthy subjects) | therapeutic effects on B16 tumors with B cells eradicated (B16 tumor) | suppressive effects of CD19+CD24hiIgDlo/− B cells from draining lymph nodes of tumor-bearing mice on proliferation of activated CD4+ T cells [2] | therapeutic effects on MB49 tumors, GSK3787 in combination with FGK45.5 [3] | therapeutic effects on MB49 tumors, used solely [3] | anti-tumor effects (speed of tumor growth) [4] | proportion of the CD19+CD24hiIgDlo/− B cell subpopulation in draining lymph nodes ([5]; B16 tumor-bearing mice, 24th hour after last GSK3787 injection, FIGS. 7a, b) | Ki67 expression of CD19+CD24hiIgDlo/− B cells ([5]; FIG. 7e, f) | inhibition of CD4 T cell proliferation by B cells from draining lymph nodes of treated tumor-bearing mice [6] | proportions of CD4/CD19 cells in draining lymph nodes ([7]; FIG. 4c) | absolute count of CD45+ cells in draining lymph nodes ([7]; low-dose FGK45.5, 24 hours after last GSK3787 injection, FIG. 4a) | absolute count and proportion of CD11c+ cells in draining lymph nodes ([7]; low-dose FGK45.5, FIG. 4b) | cell counts of CD4+ T and CD8+ T cells and their proportions in CD45+ cells in draining lymph nodes ([7]; low-dose FGK45.5, FIG. 4b)
O=C(NCCS(=O)(=O)c1ccc(C(F)(F)F)cn1)c1ccc(Cl)cc1 [GSK3787] | significantly reduced | significantly reduced | lost its function of enhancing anti-tumor effects of FGK45.5 | reduced suppressive effects | could further improve the effect of FGK45.5 | no therapeutic effects | almost no anti-tumor effects | decreased significantly | reduced increase in Ki67 expression | decreased inhibition | basically comparable | did not change | basically the same | consistent
O=C(Nc1ccncc1)c1cc([N+](=O)[O-])ccc1Cl [T0070907] | – | – | – | – | – | – | almost no anti-tumor effects | – | – | – | – | – | – | –
